Test results: article PMC3174232, “Identification of a Negative Allosteric Site on Human α4β2 and α3β4 Neuronal Nicotinic Acetylcholine Receptors” (PLoS ONE, 2011)
Where two headings read alike, the source gives them in different places.

Key:
[1] = tested on: hα4β2 nAChRs; conditions: introduction, low µM range; cited from earlier work
[2] = target: T1, hα4β2WT nAChRs (Homo sapiens, UniProt P17787+P43681); assay: Calcium accumulation assay, HEK ts201 cells transiently expressing wild-type hα4β2 nAChRs; assay type: cell-based
T1 construct: Human nAChR α4 and β2 full-length cDNAs in the vector pSP64 (poly A); expressed in transfected cells; host or cells: HEK ts201 cells
T1 sequence (P43681 29-627 limits assumed): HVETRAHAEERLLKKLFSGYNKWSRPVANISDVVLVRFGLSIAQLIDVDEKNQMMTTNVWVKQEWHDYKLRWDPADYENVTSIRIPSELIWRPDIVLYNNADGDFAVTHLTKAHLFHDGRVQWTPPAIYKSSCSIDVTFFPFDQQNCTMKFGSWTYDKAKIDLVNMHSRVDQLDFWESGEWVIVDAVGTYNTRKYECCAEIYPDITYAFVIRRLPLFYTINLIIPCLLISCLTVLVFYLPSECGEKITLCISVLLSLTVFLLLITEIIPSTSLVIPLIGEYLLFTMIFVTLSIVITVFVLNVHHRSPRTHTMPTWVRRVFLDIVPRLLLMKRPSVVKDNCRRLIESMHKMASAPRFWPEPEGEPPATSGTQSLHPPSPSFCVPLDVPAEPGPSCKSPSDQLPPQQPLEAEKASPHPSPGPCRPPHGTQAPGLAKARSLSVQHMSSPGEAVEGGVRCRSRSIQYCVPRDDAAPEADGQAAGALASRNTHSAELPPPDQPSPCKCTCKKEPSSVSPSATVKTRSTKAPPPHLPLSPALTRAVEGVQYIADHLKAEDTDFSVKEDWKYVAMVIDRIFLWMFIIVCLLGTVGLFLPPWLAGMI
T1 sequence (P17787 26-502): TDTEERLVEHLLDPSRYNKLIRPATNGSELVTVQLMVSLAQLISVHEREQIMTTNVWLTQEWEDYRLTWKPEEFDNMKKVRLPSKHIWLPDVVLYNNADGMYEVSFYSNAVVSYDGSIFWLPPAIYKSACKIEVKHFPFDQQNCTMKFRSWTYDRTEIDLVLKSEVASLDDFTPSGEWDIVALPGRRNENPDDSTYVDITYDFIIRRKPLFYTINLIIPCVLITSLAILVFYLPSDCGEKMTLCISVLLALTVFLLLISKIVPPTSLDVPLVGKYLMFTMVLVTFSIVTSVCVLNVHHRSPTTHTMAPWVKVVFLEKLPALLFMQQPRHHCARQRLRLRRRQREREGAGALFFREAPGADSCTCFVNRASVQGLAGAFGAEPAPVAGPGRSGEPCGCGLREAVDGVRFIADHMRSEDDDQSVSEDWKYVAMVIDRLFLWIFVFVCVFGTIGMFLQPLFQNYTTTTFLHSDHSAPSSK
Protocol: (§1) Calcium accumulation assays were performed as described previously with slight modifications. Briefly, HEK ts201 cells, transiently expressing hα4β2WT nAChRs or hα4β2M nAChRs, were plated on 96-well plates at a density of 2.6×10^5 cells per well. Twenty-four hours after plating, the cells were washed and then incubated with fluo-4-AM for 30 minutes at 37°C followed by 30 minutes at 24°C. After incubation, cells were washed and fluorescence was measured at ∼0.7 second intervals using a fluid handling integrated fluorescence plate reader (Flex Station, Molecular Devices, Sunnyvale, CA). […] Functional responses were quantified by first calculating the net fluorescence changes (the difference between control sham-treated and control agonist-treated groups). […] Results were calculated from the number of observations (n) performed in triplicate. Curve fitting was performed by Prism software (GraphPad, San Diego, CA). EC50 values, IC50 values, and Hill coefficients were obtained by averaging values generated from each individual concentration-response curve. EC50 values and IC50 values were expressed as geometric means (95% confidence limits). Experimental values were compared using the t-test (p<0.005), as indicated.
(§2) Human nAChR α4 and β2 full-length cDNAs in the vector pSP64 (poly A) were obtained from Dr. Jon Lindstrom (University of Pennsylvania) and used as the template for mutagenesis (β2) and for transient expression (α4 and β2). A single mutation was made in the β2 subunit using the Quik Change Lightning Multi Site-Directed Mutagenesis Kit (Stratagene) following the manufacturers instructions. Primers were designed using the QuikChange Primer Design Program (Stratagene) and Oligo 4.0 (National Biosciences) and synthesized by Invitrogen. Primers were designed to replace the threonine residue at position 58 in the hβ2 subunit with a lysine found at the similar position in the hβ4 subunit. The following primer was designed to change the threonine (ACC) at position 58 in the β2 subunit to lysine (AAG): β2 mutant 5′-[…]-3′. The underlined nucleotides defined the mutation. Primers were also designed to replace the phenylalanine residue at position 118 in the hβ2 subunit with a leucine found at the similar position in the hβ4 subunit. The following primer was designed to change the phenylalanine (TTC) at position 118 in the β2 subunit to leucine (TTG): 5′-[…]-3′ and 5′- […]-3′. […] The mutant hβ2 cDNAs were subcloned into pcDNA 3.1+Zeo (Invitrogen). The wild type hα4 and hβ2 cDNAs were also subcloned into the pcDNA 3.1+ and pcDNA 3.1+ Zeo vectors respectively. All cDNA clones were completely sequenced using a 3730 DNA Analyzer (Applied Biosystems) at the Ohio State University Plant-Microbe Genomics Facility. DNAs used for transfection were purified using PureLink High Pure Mini or Midi Kits (Invitrogen). HEK ts201 cells (kind gift of Dr. Rene Anand, Ohio State University Department of Pharmacology) were transiently transfected with wild-type hα4 mutant hβ2 or wild-type hα4β2 cDNAs using Lipofectamine 2000 (Invitrogen) in 60 mm dishes. After 8 hours, the cells were replated into 96 well dishes for the intracellular calcium accumulation assays.

[3] = target: T2, hα4β2-T58K nAChRs (Homo sapiens, UniProt P17787+P43681, T84K); assay: Calcium accumulation assay, HEK ts201 cells transiently expressing hα4β2 β2-T58K mutant nAChRs; assay type: cell-based
T2 construct: Human nAChR α4 and β2 full-length cDNAs in the vector pSP64 (poly A); expressed in transfected cells; host or cells: HEK ts201 cells
T2 sequence (P43681 27-627, stated change not applied): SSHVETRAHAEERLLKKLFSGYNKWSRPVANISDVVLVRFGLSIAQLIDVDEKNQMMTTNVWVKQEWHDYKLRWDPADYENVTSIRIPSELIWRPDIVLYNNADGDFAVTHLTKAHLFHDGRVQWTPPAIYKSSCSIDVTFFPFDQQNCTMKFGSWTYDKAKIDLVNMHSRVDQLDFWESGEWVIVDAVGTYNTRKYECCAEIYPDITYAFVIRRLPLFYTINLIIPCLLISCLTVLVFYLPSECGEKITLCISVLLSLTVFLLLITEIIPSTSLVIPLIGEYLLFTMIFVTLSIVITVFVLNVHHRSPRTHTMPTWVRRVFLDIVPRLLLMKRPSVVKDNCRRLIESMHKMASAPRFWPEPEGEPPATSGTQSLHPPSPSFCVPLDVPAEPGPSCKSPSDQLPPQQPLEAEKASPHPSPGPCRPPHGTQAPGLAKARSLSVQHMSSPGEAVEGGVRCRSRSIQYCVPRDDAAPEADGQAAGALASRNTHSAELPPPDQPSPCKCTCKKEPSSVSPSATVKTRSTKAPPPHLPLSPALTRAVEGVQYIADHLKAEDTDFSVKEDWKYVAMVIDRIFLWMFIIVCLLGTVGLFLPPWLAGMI
T2 sequence (P17787 26-502 T84K): as the sequence (P17787 26-502) above, with T59K counted along it
Protocol: as §1, §2

[4] = tested on: human α3β4 nAChRs; conditions: tested at concentrations up to 100 µM; cited from earlier work
[5] = target: T3, hα4β2-F118L nAChRs (Homo sapiens, UniProt P17787+P43681, F144L); assay: Calcium accumulation assay, HEK ts201 cells transiently expressing hα4β2 β2-F118L mutant nAChRs; assay type: cell-based
T3 construct: Human nAChR α4 and β2 full-length cDNAs in the vector pSP64 (poly A); expressed in transfected cells; host or cells: HEK ts201 cells
T3 sequence (P43681 27-627, stated change not applied): as the sequence (P43681 27-627, stated change not applied) above
T3 sequence (P17787 26-502 F144L): as the sequence (P17787 26-502) above, with F119L counted along it
Protocol: as §1, §2

[6] = Solubility limit in functional assay; assay type: physicochemical; conditions: read-out: highest soluble test concentration
[7] = target: recombinant hα3β4 receptors; design: method as in PMID 8996215, PMID 11044726, PMID 9454827; conditions: read-out: expt. potency, EC50, cited from earlier work
[8] = target: recombinant hα4β2 receptors; design: method as in PMID 8996215, PMID 11044726, PMID 9454827; conditions: read-out: expt. potency, EC50, cited from earlier work

O=C(OCC1CCCN(CCCc2ccccc2)C1)c1ccccc1-c1ccccc1 (stereo not shown) [KAB-18]
potency (inhibition of hα4β2 nAChRs) [1]: 10 µM | n H, Hill coefficient ([2]; hα4β2-WT nAChRs): −1.2 | IC50 ([2]; read-out: IC50): 8.5 µM | n H, Hill coefficient ([3]; hα4β2-T58K nAChRs): −1.0 | decrease in potency, β2T58K mutant vs wild-type ([3]; ratio of IC50 71.8 µM (T58K) to 8.5 µM (WT)): eight-fold decrease | IC50 ([3]; read-out: IC50): 71.8 µM | functional activity on human α3β4 nAChRs [4]: no functional activity | IC50 [5]: > 100 µM | inhibitory activity on F118L mutant ([5]; at concentrations up to 100 µM): loss of inhibitory activity | solubility [6]: ≤ 100 µM

CC(=O)OCC[N+](C)(C)C [acetylcholine]
EC50 ([7]; hα3β4): 203 µM | EC50 ([8]; hα4β2): 100 µM

COc1cc2c3cc1Oc1cc(ccc1O)C[C@@H]1c4c(cc(OC)c(O)c4Oc4ccc(cc4)C[C@@H]3N(C)CC2)CC[N+]1(C)C [d-tubocurarine]
IC50 [2]: 6.3 µM | n H, Hill coefficient [2]: −1.0 | IC50 [3]: 6.2 µM | n H, Hill coefficient [3]: −0.6 | IC50 [5]: 6.5 µM | n H, Hill coefficient [5]: −0.9

Clc1ccc(C2CC3CCC2N3)cn1 (stereo not shown) [epibatidine]
EC50 ([7]; hα3β4): 0.151 µM | EC50 ([8]; hα4β2): 0.043 µM | n H, Hill coefficient ([2]; hα4β2-WT nAChRs): 0.9 | n H, Hill coefficient ([3]; hα4β2-T58K nAChRs): 0.7 | n H, Hill coefficient ([5]; hα4β2-F118L nAChRs): 0.8

CNC1(C)C2CCC(C2)C1(C)C (stereo not shown) [mecamylamine]
n H, Hill coefficient ([2]; hα4β2-WT nAChRs): −1.4 | IC50 ([2]; read-out: IC50): 0.2 µM | n H, Hill coefficient ([3]; hα4β2-T58K nAChRs): −0.6 | IC50 ([3]; read-out: IC50): 0.2 µM | n H, Hill coefficient ([5]; hα4β2-F118L nAChRs): −1.1 | IC50 ([5]; read-out: IC50): 0.4 µM

CN1CCC[C@H]1c1cccnc1 [nicotine]
EC50 [7]: 40.3 µM | EC50 [8]: 3.5 µM
